Target: T1, AsPC-1 HiBiT-KRASG12D (Homo sapiens, UniProt P01116, G12D)
T1 construct: insert the HiBiT tag onto the N-terminus of one or more of the endogenous KRAS alleles; endogenous in cells; host or cells: AsPC-1 (ATCC CRL-1682), CRISPR-Cas9 knock-in clone, one tagged allele
Assay: HiBiT degradation assay (G12D), AsPC-1 HiBiT-KRASG12D cells
Format: cell-based
Details: 24 hours treatment; for Dmax: ASPC1, AsPC-1 HiBiT-KRASG12D cells, maximum degradation observed; for DC50: AsPC-1 HiBiT-KRASG12D cells, HiBiT luminescence
Procedure, shortened: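 In this degradation format, an engineered AsPC-1 clone with HiBiT fused to the KRAS N-terminus is exposed to compounds for 24 hours, after which remaining tagged protein is quantified by lytic HiBiT luminescence.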

T1 sequence (P01116 1-188 isoform P01116-2 G12D): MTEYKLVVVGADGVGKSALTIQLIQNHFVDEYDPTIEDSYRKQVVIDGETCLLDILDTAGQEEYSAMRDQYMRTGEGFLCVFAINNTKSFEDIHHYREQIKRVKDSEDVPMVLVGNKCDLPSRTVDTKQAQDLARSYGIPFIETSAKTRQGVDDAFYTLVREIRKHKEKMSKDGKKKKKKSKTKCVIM

SMILES | Dmax | DC50
CCc1cccc2cc(O)cc(-c3ncc4c(N5CC6CCC(C5)N6)nc(OC[C@@]56CCCN5[C@H](COC(=O)N5CC7(C5)CN(c5cc([C@@H](C(=O)N8C[C@H](O)C[C@H]8C(=O)N[C@@H](C)c8ccc(-c9scnc9C)cc8)C(C)C)on5)C7)CC6)nc4c3F)c12 [Compound 113, [(3S,7aS)-7a-{[(4-{3,8-diazabicyclo[3.2.1]octan-3-yl}-7-(8-ethyl-3-hydroxynaphthalen-1-yl)-8-fluoropyrido[4,3-d]pyrimidin-2-yl)oxy]methyl}-hexahydro-1H-pyrrolizin-3-yl]methyl 6-{5-[(2S)-1-[(2S,4R)-4-hydroxy-2-{[(1S)-1-[4-(4-methyl-1,3-thiazol-5-yl)phenyl]ethyl]carbamoyl}pyrrolidin-1-yl]-3-methyl-1-oxobutan-2-yl]-1,2-oxazol-3-yl}-2,6-diazaspiro[3.3]heptane-2-carboxylate] | 20 to 60% | < 600 nM
CCc1cccc2cc(O)cc(-c3ncc4c(N5CC6CCC(C5)N6)nc(OC[C@]56CCCN5[C@@H](COC(=O)NCc5cc([C@@H](C(=O)N7C[C@H](O)C[C@H]7C(=O)N[C@@H](C)c7ccc(-c8scnc8C)cc7)C(C)C)on5)CC6)nc4c3F)c12 [Compound 103, [(3R,7aR)-7a-{[(4-{3,8-diazabicyclo[3.2.1]octan-3-yl}-7-(8-ethyl-3-hydroxynaphthalen-1-yl)-8-fluoropyrido[4,3-d]pyrimidin-2-yl)oxy]methyl}-hexahydro-1H-pyrrolizin-3-yl]methyl N-({5-[(2S)-1-[(2S,4R)-4-hydroxy-2-{[(1S)-1-[4-(4-methyl-1,3-thiazol-5-yl)phenyl]ethyl]carbamoyl}pyrrolidin-1-yl]-3-methyl-1-oxobutan-2-yl]-1,2-oxazol-3-yl}methyl) carbamate] | 20 to 60% | 1000 to 3000 nM
CCc1cccc2cc(O)cc(-c3ncc4c(N5C[C@H]6CC[C@@H](C5)N6)nc(OC[C@@H]5CC[C@@H](COC(=O)N6CCC(Oc7cc([C@@H](C(=O)N8C[C@H](O)C[C@H]8C(=O)N[C@@H](C)c8ccc(-c9scnc9C)cc8)C(C)C)on7)CC6)N5C)nc4c3F)c12 [Compound 255, ((2S,5S)-5-(((4-((1R,5S)-3,8-diazabicyclo[3.2.1]octan-3-yl)-7-(8-ethyl-3-hydroxynaphthalen-1-yl)-8-fluoropyrido[4,3-d]pyrimidin-2-yl)oxy)methyl)-1-methylpyrrolidin-2-yl)methyl 4-((5-((S)-1-((2S,4R)-4-hydroxy-2-(((S)-1-(4-(4-methylthiazol-5-yl)phenyl)ethyl)carbamoyl)pyrrolidin-1-yl)-3-methyl-1-oxobutan-2-yl)isoxazol-3-yl)oxy)piperidine-1-carboxylate] | 20 to 60% | 600 to 1000 nM
CCc1cccc2cc(O)cc(-c3ncc4c(N5CC6CCC(C5)N6)nc(OCCN5CC[C@H]6[C@H](CCN6c6cc([C@H](C(=O)N7C[C@H](O)C[C@H]7C(=O)N[C@@H](C)c7ccc(-c8scnc8C)cc7)C(C)C)on6)C5)nc4c3F)c12 (relative stereo) [Compound 73, (2S,4R)-1-[(2R*)-2-{3-[(3aR**,7aR***)-5-{2-[(4-{3,8-diazabicyclo[3.2.1]octan-3-yl}-7-(8-ethyl-3-hydroxynaphthalen-1-yl)-8-fluoropyrido[4,3-d]pyrimidin-2-yl)oxy]ethyl}-octahydro-1H-pyrrolo[3,2-c]pyridin-1-yl]-1,2-oxazol-5-yl}-3-methylbutanoyl]-4-hydroxy-N-[(1S)-1-[4-(4-methyl-1,3-thiazol-5-yl)phenyl]ethyl]pyrrolidine-2-carboxamide] | 80 to 100% | < 600 nM
CCc1cccc2cc(O)cc(-c3ncc4c(N5CC6CCC(C5)N6)nc(OC[C@]56CCCN5[C@H](COC(=O)N5CCN(c7cc([C@@H](C(=O)N8C[C@H](O)C[C@H]8C(=O)N[C@@H](C)c8ccc(-c9scnc9C)cc8)C(C)C)on7)[C@@H](C)C5)CC6)nc4c3F)c12 [Compound 124, [(3S,7aR)-7a-{[(4-{3,8-diazabicyclo[3.2.1]octan-3-yl}-7-(8-ethyl-3-hydroxynaphthalen-1-yl)-8-fluoropyrido[4,3-d]pyrimidin-2-yl)oxy]methyl}-hexahydro-1H-pyrrolizin-3-yl]methyl (3S)-4-{5-[(2S)-1-[(2S,4R)-4-hydroxy-2-{[(1S)-1-[4-(4-methyl-1,3-thiazol-5-yl)phenyl]ethyl]carbamoyl}pyrrolidin-1-yl]-3-methyl-1-oxobutan-2-yl]-1,2-oxazol-3-yl}-3-methylpiperazine-1-carboxylate] | < 20% | < 600 nM
CCc1cccc2cc(O)cc(-c3ncc4c(N5CC6CCC(C5)N6)nc(OC[C@]56CCCN5[C@H](COC(=O)N5CC7(C5)CN(c5cc([C@@H](C(=O)N8C[C@H](O)C[C@H]8C(=O)N[C@@H](C)c8ccc(-c9scnc9C)cc8)C(C)C)on5)C7)CC6)nc4c3F)c12 [Compound 144, [(3S,7aR)-7a-{[(4-{3,8-diazabicyclo[3.2.1]octan-3-yl}-7-(8-ethyl-3-hydroxynaphthalen-1-yl)-8-fluoropyrido[4,3-d]pyrimidin-2-yl)oxy]methyl}-hexahydro-1H-pyrrolizin-3-yl]methyl 6-{5-[(2S)-1-[(2S,4R)-4-hydroxy-2-{[(1S)-1-[4-(4-methyl-1,3-thiazol-5-yl)phenyl]ethyl]carbamoyl}pyrrolidin-1-yl]-3-methyl-1-oxobutan-2-yl]-1,2-oxazol-3-yl}-2,6-diazaspiro[3.3]heptane-2-carboxylate] | 20 to 60% | 600 to 1000 nM
C#Cc1c(F)ccc2cc(O)cc(-c3ncc4c(N5CC6CCC(C5)N6)nc(OCCN5CCC(C6CCN(c7cc([C@@H](C(=O)N8C[C@H](O)C[C@H]8C(=O)N[C@@H](C)c8ccc(-c9scnc9C)cc8)C(C)C)on7)CC6)CC5)nc4c3F)c12 [Compound 177, (2S,4R)-1-[(2S)-2-[3-(1′-{2-[(4-{3,8-diazabicyclo[3.2.1]octan-3-yl}-7-(8-ethynyl-7-fluoro-3-hydroxynaphthalen-1-yl)-8-fluoropyrido[4,3-d]pyrimidin-2-yl)oxy]ethyl}-[4,4′-bipiperidin]-1-yl)-1,2-oxazol-5-yl]-3-methylbutanoyl]-4-hydroxy-N-[(1S)-1-[4-(4-methyl-1,3-thiazol-5-yl)phenyl]ethyl]pyrrolidine-2-carboxamide] | 60 to 80% | < 600 nM
CCc1cccc2cc(O)cc(-c3ncc4c(N5CC6CCC(C5)N6)nc(OC[C@@]56CCCN5[C@H](COC(=O)N5CCC(Oc7cc([C@H](C(=O)N8C[C@H](O)C[C@H]8C(=O)N[C@@H](C)c8ccc(-c9scnc9C)cc8)C(C)C)on7)CC5)CC6)nc4c3F)c12 [Compound 117, [(3S,7aS)-7a-{[(4-{3,8-diazabicyclo[3.2.1]octan-3-yl}-7-(8-ethyl-3-hydroxynaphthalen-1-yl)-8-fluoropyrido[4,3-d]pyrimidin-2-yl)oxy]methyl}-hexahydro-1H-pyrrolizin-3-yl]methyl 4-({5-[(2R)-1-[(2S,4R)-4-hydroxy-2-{[(1S)-1-[4-(4-methyl-1,3-thiazol-5-yl)phenyl]ethyl]carbamoyl}pyrrolidin-1-yl]-3-methyl-1-oxobutan-2-yl]-1,2-oxazol-3-yl}oxy)piperidine-1-carboxylate] | 80 to 100% | < 600 nM
CCc1cccc2cc(O)cc(-c3ncc4c(N5CC6CCC(C5)N6)nc(OC[C@@H]5CC[C@]6(COC(=O)N7CCN(c8cc([C@H](C(=O)N9C[C@H](O)C[C@H]9C(=O)N[C@@H](C)c9ccc(-c%10scnc%10C)cc9)C(C)C)on8)CC7)CCCN56)nc4c3F)c12 [Compound 342, [(3S,8S)-3-[[4-(3,8-diazabicyclo[3.2.1]octan-3-yl)-7-(8-ethyl-3-hydroxy-1-naphthyl)-8-fluoro-pyrido[4,3-d]pyrimidin-2-yl]oxymethyl]-1,2,3,5,6,7-hexahydropyrrolizin-8-yl]methyl 4-[5-[(1R)-1-[(2S,4R)-4-hydroxy-2-[[(1S)-1-[4-(4-methylthiazol-5-yl)phenyl]ethyl]carbamoyl]pyrrolidine-1-carbonyl]-isobutyl]isoxazol-3-yl]piperazine-1-carboxylate] | 80 to 100% | < 600 nM
Cc1ncsc1-c1ccc([C@H](C)NC(=O)[C@@H]2C[C@@H](O)CN2C(=O)[C@@H](c2cc(OCC3CCN(CCOc4nc(N5CC6CCC(C5)N6)c5cnc(-c6cc(O)cc7cccc(C)c67)c(F)c5n4)CC3)no2)C(C)C)cc1 [Compound 60, (2S,4R)-1-[(2R)-2-{3-[(1-{2-[(4-{3,8-diazabicyclo[3.2.1]octan-3-yl}-8-fluoro-7-(3-hydroxy-8-methylnaphthalen-1-yl)pyrido[4,3-d]pyrimidin-2-yl)oxy]ethyl}piperidin-4-yl)methoxy]-1,2-oxazol-5-yl}-3-methylbutanoyl]-4-hydroxy-N-[(1S)-1-[4-(4-methyl-1,3-thiazol-5-yl)phenyl]ethyl]pyrrolidine-2-carboxamide] | 60 to 80% | < 600 nM
CCc1cccc2cc(O)cc(-c3ncc4c(N5CCCCCC5)nc(OC[C@@H]5CC[C@@H](COC(=O)N6CCN(c7cc([C@H](C(=O)N8C[C@H](O)C[C@H]8C(=O)N[C@@H](C)c8ccc(-c9scnc9C)cc8)C(C)C)on7)CC6)N5C)nc4c3F)c12 [Compound 272, [(2S,5S)-5-[[4-(azepan-1-yl)-7-(8-ethyl-3-hydroxy-1-naphthyl)-8-fluoro-pyrido[4,3-d]pyrimidin-2-yl]oxymethyl]-1-methyl-pyrrolidin-2-yl]methyl 4-[5-[(1R)-1-[(2S,4R)-4-hydroxy-2-[[(1S)-1-[4-(4-methylthiazol-5-yl)phenyl]ethyl]carbamoyl]pyrrolidine-1-carbonyl]-2-methyl-propyl]isoxazol-3-yl]piperazine-1-carboxylate] | 60 to 80% | < 600 nM
